The source of these data is patent US6620819B2, “Anticonvulsant derivatives useful in treating psychosis” (Ortho-McNeil Pharmaceutical, Inc., priority 1999, dated 2003).

One experiment concerns kindled epilepsy. The note with it: animal model of kindled epilepsy; cited from earlier work.
The subject of another experiment is patients with dementia. The experiment can be described thus: retrospective chart review of open label add-on topiramate, dementia patients. The experiment is classed as in vivo, human. The settings on record: all three dementia inpatients; daily mean dose 210 mg, duration 11.7 weeks; added to existing pharmacotherapy, several on risperidone. The procedure:
(§1) A retrospective analysis of patients treated in an open label manner with topiramate for dementia and/or behavioral and psychotic disturbances in dementia was performed.
(§2) The charts of 58 consecutive patients with diagnosed psychiatric disorders refractory to conventional mood stabilizers who were treated with topiramate were selected for retrospective review. Topiramate 25 mg BID was added to existing pharmacotherapy on an open label basis. It was titrated upward in 50 mg (25 mg bid) increments every seven days until improvement occurred or a total dosage of 400 mg per day was reached. Charts were retrospectively reviewed for the following data: demographic information, psychiatric diagnosis and duration of illness, general medical history, daily dose of topiramate and regimen, duration of topiramate therapy, reason for discontinuation of topiramate therapy, previous therapy, concurrent medications, adverse events and evaluation of response to topiramate.
(§3) Results were analyzed using descriptive statistics. When possible, results are expressed as means with standard deviation (SD). […] Improvement was investigator rated and included a qualitative assessment of changes in sleep, appetite, mood and concentration during therapy. Adverse events reported by the patients were recorded during therapy and assessed for their relationship to study therapy. […]

For experiment [1], the system named is patients with psychosis, not otherwise specified. Nature of the experiment: retrospective chart review of open label add-on topiramate, psychosis patients. The experiment is classed as in vivo, human. The note with it: both psychosis inpatients; daily mean dose 260 mg, duration 10.7 weeks; added to existing pharmacotherapy, several on risperidone. Here is the method:
as §1, §2, §3

Experiment [2] has as its system seizures in several rodent models of epilepsy. The settings on record: cited from earlier work.
Experiment [3] concerns simple and complex partial seizures and secondarily generalized seizures. The note with it: adjunctive therapy or monotherapy, clinical trials; cited from earlier work.
The subject of experiment [4] is behavioral agitation in dementia. The settings on record: some patients with dementia; cited from earlier work.

Take `CC1(C)O[C@@H]2[C@@H](CO[C@@]3(COS(N)(=O)=O)OC(C)(C)O[C@@H]23)O1` [topiramate, 2,3:4,5-bis-O-(1-methylethylidene)-β-D-fructopyranose sulfamate]: the block of seizures result (in the experiment with kindled epilepsy; in experiment [2]) was “effectively block seizures” each time. Also, the “investigator rated response (Likert scale worse / no change / minimally improved / markedly improved)” value (with patients with dementia; in experiment [1]) was “marked or moderate improvement” in each case. The “efficacy in treating simple and complex partial seizures and secondarily generalized seizures” value in experiment [3] is “effective”.
With `CCCC(CCC)C(=O)O` [divalproex sodium], the “control of behavioral agitation” value in experiment [4] is given as “efficacious”.
For the compound `NC(=O)N1c2ccccc2C=Cc2ccccc21` [carbamazepine], in experiment [4], the “control of behavioral agitation” value is “efficacious”.
